Assay results as given in patent US20260265267A1, “NOVEL COMPOUNDS WITH MTORC2-INHIBITORY ACTIVITY AND USES THEREOF” (Aliad Biopharma, priority 2023, published 2026).

Experiments:
[1] = test system: LC3-II; experiment: LC3-II formation as indicator of autophagy in HeLa cells (Western blot); assay type: cell-based, human; conditions: 9 hours; for activity at 40 µM: Homo sapiens, read-out: LC3-II (% control)
Protocol: (§1) Specifically, HeLa cells were cultured in a 5% CO2 incubator at 37° C. in DMEM (Dulbecco's Modified Eagles Media) medium supplemented with 10% FBS, penicillin (100 unit/ml), and streptomycin (100 μg/ml). Cultivation was started by seeding 4×10^5 cells in a 100 mm culture dish, and subculture was carried out every 3 days.
(§2) Human cell line HeLa cells were seeded in a 60 mm culture dish at a density of 2×10^5 cells/plate, and cultured for 24 hours. Then, HeLa cells were treated with 70 types of compounds at a concentration of 40 μM each for 9 hours. HeLa cells were washed twice with cold 1×PBS, and then lysed with 100 μl of RIPA buffer (50 mM Tris-HCl (pH7.4), 0.25% sodium deoxycholate, 50 mM NaF, 1% NP-40, 150 mM NaCl, 1 mM β-glycerophosphate, 1 mM PMSF, 1 mM NaVO4, 1 μg/ml leupeptin, 1 μg/ml pepstatin A, 10 nM calyculin A, 10 μg/ml aprotinin, 1 mM EDTA) to hemolyze the cell membrane. Then, the lysates were centrifuged at 12,000 rpm at 4° C. for 10 minutes to collect the supernatant, which is cell lysate. Protein concentration in the cell lysate was determined using the BCA protein assay kit (Thermo Fisher Scientific), and equal amounts of protein were separated by SDS-PAGE.
(§3) Western blot analysis was performed by the following method. […] After washing the membrane three times for 5 minutes each with TBS-T buffer, it was incubated with primary antibodies diluted in TBS-T buffer containing 5% skim milk or 5% BSA overnight at 4° C. Subsequently, the membrane was washed three times for 5 minutes each with TBS-T buffer, and then incubated with secondary antibodies diluted in TBS-T buffer containing 5% skim milk at room temperature for 30 minutes. The membrane was washed five times for 5 minutes each with TBS-T buffer containing 5% skim milk, and then the protein bands bound by the secondary antibody were detected using a chemiluminescence method. The primary antibodies used were Akt (cell signaling, #4691), pAkt(S473) (Cell signaling, #4060), p70S6K (Cell signaling, #S6198), pp70S6K(T389) (cell signaling, #9205S), LC3-II (MBL, #PM036), and the secondary antibodies used were HRP conjugated anti-rabbit (Jackson immunoresearch laboratory, #711-035-152) and HRP conjugated anti-mouse IgG (Jackson immunoresearch laboratory, #515-035-072).
LC3-II formation was selected as an indicator of autophagy in HeLa cells, and the LC3-II signal obtained from Western blot analysis was normalized to the pan-Akt signal and the data were expressed as a percentage relative to the control group treated with DMSO only, which is a vehicle.

[2] = molecular target: T1, mTORC2 (Homo sapiens, UniProt P42345); experiment: mTORC2 inhibitory activity in HeLa cells (Akt Ser473 phosphorylation, Western blot); assay type: cell-based; conditions: for selective inhibition of mTORC2: 40 μM, versus mTORC1; for selective inhibition of mTORC2 / remaining activity at 40 µM: 9 hours; for remaining activity at 40 µM: read-out: pSer473-AKT/AKT (% control); for inhibition at 40 µM: HeLa, 9 h, read-out: reduction in Akt Ser473 phosphorylation compared to the control group
T1 construct: the following experiments were conducted in HeLa cells; endogenous in cells; host or cells: HeLa
Protocol: as §1, §2, §3
As an mTORC2 activity indicator in HeLa cells, the level of Akt Ser473 phosphorylation was selected as a marker, and the phosphor-Akt (Ser473) signal obtained from Western blot analysis was normalized to the pan-Akt signal, and the data were expressed as a percentage relative to the control group treated with DMSO only, which is a vehicle.

[3] = molecular target: T2, mTOR(CD) protein and mLST8 protein (Homo sapiens, UniProt P42345+Q9BVC4); experiment: mTOR(CD)-mLST8 binding assay (co-precipitation, Western blot); conditions: 0.04 to 40 μM
T2 construct: mTOR C-terminal domain (mTOR(CD), a.a. 2179-2549); made in house; host or cells: E. coli (mTOR(CD)); insect Sf9 cells (mLST8, used as a crude extract)
Protocol: mLST8 binds to the mTOR C-terminal domain (mTOR(CD), a.a. 2179-2549). After binding to mTOR, mLST8 interacts with mSin1 and Rictor to complete the formation of the mTORC2 complex, serving as a scaffold. In order to evaluate the inhibitory activity of the compounds synthesized in Examples 1 to 70 on the binding between mLST8 protein and mTOR(CD) protein, the following mTOR(CD)-mLST8 binding assay was performed. Four types of compounds: HN2210, HN2213, HN2221 and HN2313 were used as the experimental target compounds.
Specifically, mTOR(CD) protein was overexpressed in E. coli, labeled with biotin, and then partially purified. mLST8 protein was overexpressed in insect Sf9 cells to obtain mLST8 extract. mTOR(CD)-biotin and mLST8 extract were incubated at 4° C. to induce binding between mTOR(CD)-biotin and mLST8 proteins, and then the mTOR(CD)-biotin and mLST8 complex were co-precipitated using avidin-agarose beads. The relative amounts of precipitated mTOR(CD)-biotin and mLST8 proteins were measured by Western blot analysis, as shown in FIG. 4. Four types of compounds were added during the incubation process of the mTOR(CD)-biotin and mLST8 extract.

[4] = molecular target: T3, mTORC1 (Homo sapiens, UniProt P42345); experiment: mTORC1 inhibitory activity in HeLa cells (p70S6K Thr389 phosphorylation, Western blot); assay type: cell-based; conditions: for remaining activity at 40 µM: read-out: pThr389-S6K/S6K (% control)
T3 construct: the following experiments were conducted in HeLa cells; endogenous in cells; host or cells: HeLa
Protocol: as §1, §2, §3
As an mTORC1 activity indicator in HeLa cells, the level of p70S6K Thr389 phosphorylation was selected as a marker, and the level of phosphor-p70S6K (Thr389) signal measured by Western blot analysis was normalized to a level of pan-p70S6K signal, and then expressed as a percentage of the control group treated with only DMSO, which is a vehicle.

[5] = test system: mTORC2; experiment: mTORC2 inhibitory activity in primary cultured cerebral neurons (Akt Ser473 phosphorylation); assay type: cell-based, SD mice; conditions: for effect on Akt Ser473 phosphorylation / decrease in AKT Ser473 phosphorylation at 24 hours: 500 nM or 100 nM; for effect on Akt Ser473 phosphorylation / pSer473-AKT/AKT (% control): 24 hours
Protocol: Specifically, primary neural cells were cultured from the cerebral cortex of E16 embryos of SD mice with a gestational age 16-day (Orient Bio). The extracted brain was separated into the left and right hemispheres, the meninges were removed, and the brains were treated with trypsin in Ca^2+/Mg^2+-free HBSS solution.
The time-dependent changes in Akt Ser473 phosphorylation, Akt Thr308 phosphorylation, and LC3-II levels were measured by Western blot analysis.

[6] = test system: LC3-II; experiment: LC3-II levels in primary cultured cerebral neurons; assay type: cell-based, SD mice; conditions: for effect on LC3-II: 500 nM or 100 nM, time course to 24 hours; for LC3-II (% control): 24 hours
Protocol: Specifically, primary neural cells were cultured from the cerebral cortex of E16 embryos of SD […] with a gestational age 16-day (Orient Bio). The extracted brain was separated into the left and right hemispheres, the meninges were removed, and the brains were treated with trypsin in Ca^2+/Mg^2+-free HBSS solution. […] The cells were seeded at a density of 19,000 cells/cm^2 onto 35 mm culture dishes coated with 50 μg/ml poly-D-Lysine (Sigma, P0899) and 1 μg/ml laminin (Invitrogen, 23017-015), and then maintained in neurobasal complete media supplemented with B27 (Gibco, 17504-044) in a 5% CO2 incubator.
Therefore, the evaluation of mTORC2 inhibitory activity in primary cultured cerebral cells was conducted using the same method as in Experimental Example 1, except that each compound was treated at concentrations of 500 nM or 100 nM for 24 hours. The time-dependent changes in Akt Ser473 phosphorylation, Akt Thr308 phosphorylation, and LC3-II levels were measured by Western blot analysis.

[7] = test system: mTORC1; experiment: mTORC1 inhibitory activity in primary cultured cerebral neurons (S6K Thr389 phosphorylation); assay type: cell-based, SD mice; conditions: for effect on S6K Thr389 phosphorylation: 500 nM or 100 nM, time course to 24 hours (HN2304: from 6 to 24 hours); for pThr389-S6K/S6K (% control): 24 hours

SMILES	activity at 40 µM [1] [%]	selective inhibition of mTORC2 [2]	remaining activity at 40 µM [2] [%]	inhibition at 40 µM [2] [%]	remaining activity at 40 µM ([4]; 9 hours) [%]	selectivity for mTORC2 over mTORC1 [5]	effect on Akt Ser473 phosphorylation [5]	decrease in AKT Ser473 phosphorylation at 24 hours [5] [%]	AKT Ser473 phosphorylation from 1 to 12 hours [5]	effect on LC3-II [6]	effect on S6K Thr389 phosphorylation [7]	pSer473-AKT/AKT (% control) ([5]; 100 nM)	LC3-II (% control) ([6]; 100 nM)	pThr389-S6K/S6K (% control) ([7]; 100 nM)	also measured
O=C1c2cc(F)c(NC3CCCCC3)cc2COc2cc3c(cc21)OCO3 [HN2221, 8-(cyclohexylamino)-9-fluoro[2]benzoxepino[3,4-f]-1,3-benzodioxol-11(6H)-one]	119	selectively inhibit mTORC2	77	> 20	93										inhibition of the binding between mTOR(CD) and mLST8 proteins [3]: did not significantly inhibit
COc1cc2c(cc1OC)C(=O)c1cc(Br)ccc1CS2 [HN2304, 9-bromo-2,3-dimethoxydibenzo[b,e]thiepin-11(6H)-one]		selectively inhibit mTORC2	44	> 20	204	selective mTORC2 inhibitors	reduce Akt Ser473 phosphorylation	17	significantly increased	not affected	markedly increased				pSer473-AKT/AKT (% control) ([5]; 500 nM): 82 % control; LC3-II (% control) ([6]; 500 nM): 82 % control; pThr389-S6K/S6K (% control) ([7]; 500 nM): 504 % control
COc1cc2c(cc1OC)C(=O)c1cc(-c3ccoc3)ccc1CS2 [HN2308, 9-(3-furanyl)-2,3-dimethoxydibenzo[b,e]thiepin-11(6H)-one]		selectively inhibit mTORC2	44		95	selective mTORC2 inhibitors	reduce Akt Ser473 phosphorylation	54	increased AKT Ser473 phosphorylation significantly	no effect	no effect	46	119	104	effect on S6K Thr389 phosphorylation ([4]; 40 μM, 9 hours): no effect
COc1ccccc1CNc1cc2c(cc1F)C(=O)c1cc3c(cc1OC2)OCO3 [HN2323, 9-fluoro-8-((2-methoxybenzyl)amino)-[1,3]dioxolo[4′,5′:4,5]benzo[1,2-b]benzo[e]oxepin-11(6H)-one]	180		72	> 20	60	selective mTORC2 inhibitors	reduce Akt Ser473 phosphorylation	52	increased AKT Ser473 phosphorylation significantly	no effect	no effect	48	135	128	increase in LC3-II ([1]; 40 μM): 80%; inhibition at 40 µM ([4]; HeLa, 9 h, read-out: reduction in p70S6K Thr389 phosphorylation compared to the control group): 40%
